Results taken from article PMC11251039, “Harnessing cholesterol uptake of malaria parasites for therapeutic applications” (EMBO Molecular Medicine, 2024).
Values joined by “and” are separate entries in the source; they are usually repeats but may differ in a detail not shown here. Equal entries are not always repeated.

Columns and labels:
[1] = tested on: P. falciparum stage V gametocytes; experiment: P. falciparum gametocyte viability assay (MitoTracker, flow cytometry), stage V; assay type: cell-based, Plasmodium falciparum; details: 48 h; for Gametocyte stage V viability, percentage of control: replicate values, source data Fig. 2D
Protocol: Gametocyte assays commenced seven days (stage III–IV) or ten days (stage V) post-invasion. […]
Plasmodium falciparum Gametocyte Viability Assays:
Asexual P. falciparum parasites were induced to form gametocytes as described (21).
Synchronized trophozoite-stage parasites at 2% parasitaemia were incubated overnight and […]
haematocrit maintained at 4%. On the subsequent day (designated as day 0) of gametocytogenesis, the culture containing early ring-stage parasites was first purified by sorbitol synchronisation to remove asynchronous trophozoites, and passed through a magnetic field in a sterile MACS® column in a SuperMACSTM II magnet to remove remaining late-stage parasites or later-stage gametocytes (negative selection). The culture medium was supplemented with 50 mM N-acetyl-D-glucosamine to inhibit asexual parasite proliferation, and changed daily. Sorbitol treatment was performed on Day 1, 5, and 6 to further remove asexual parasites. Gametocytes were magnetically enriched (positive selection) in a sterile column with a SuperMACSTM II magnet and eluted in culture media with 50 mM N-acetyl-D-glucosamine. These gametocytes were incubated overnight at 37 °C under microaerophilic conditions, and purity was assessed by examination under a light microscope (400× […]
Gametocyte viability was assessed as described by Ridgway et al. (21) with modifications.
Compounds or solvent controls (DMSO) were serially diluted across 96-well plates in culture media supplemented with 50 mM N-acetyl-D-glucosamine. Culture media without compound was used as a negative control. […]
control to determine background gametocyte fluorescence. Stage III-IV gametocytes (Day 7) or stage V (day 10) gametocytes were concentrated and added to the plate with 200 µL per well. The plate was incubated for 48 hours at 37 °C under humid microaerophilic conditions.
Parasites were then stained with 500 nM MitoTrackerTM Deep Red FM and 5 μg/ml Hoechst […]
cytometer as described above. […]
excluded. Live (positive) and dead (negative) gametocytes were differentiated by […]
percentage of each was calculated. […]

[2] = tested on: human embryonic kidney cells (HEK293); experiment: Human embryonic kidney cell viability assay (MTT); assay type: cell-based; details: Homo sapiens; 96 h, HEK293; read-out: IC50, human embryonic kidney cell inhibition (viability)
Outline: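 HEK293 cells, 5,000 per well, exposed to serially diluted compound for 96 hours; 10 µg/mL cycloheximide as background control. Viability by MTT (0.45 mg/mL, 2 h), SDS solubilisation, absorbance at 570 nm.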

[3] = tested on: P. berghei liver stages; experiment: Plasmodium berghei liver stage growth inhibition assay (luminescence, in Huh7 cells); details: for P. berghei liver stage growth, dose-response data points (Figure 3A): replicate data points; for P. berghei liver stage growth, dose-response data points (Figure 3A) / Figure 3E dose-response value (replicates): listed as HJB8a53
Protocol: Growth inhibition or cell viability were assessed by incubation with a serial dilution of test compounds, solvent controls (DMSO, ethanol, ethyl acetate), or culture media alone in 96-well plates, with detection of fluorescence, luminescence, or absorbance in microplate readers after 24–96 h unless otherwise specified.
Huh7 cells were seeded at a density of 10,000 cells per well of a 96-well plate, or 20,000 cells per collagen-coated coverslip. After 24 h, test compounds were added the wells were inoculated with P. berghei liver stage sporozoites dissected from infected A. stephensi salivary glands with 5000–10,000 sporozoites per well or 10,000–20,000 sporozoites per coverslip. Uninfected wells served as a control for background luminescence. Luminescence signal was measured 48 h post-invasion by addition of 1:1 ONE-Glo^TM substrate (Promega) with a luminescence microplate reader. Coverslips were fixed, stained, and imaged, with all parasites on each coverslip imaged and delineated as described (Petersen et al, [2017]) using Fiji ImageJ (Schindelin et al, [2012]). Data are presented as a percentage of the size or parasite number of the solvent control to normalize for differences between experiments.
Growth inhibition data were normalised by subtracting background fluorescence, luminescence, absorbance, or percentage of cells from a no-growth or no-viability control (high drug concentration, no-parasite control, or time = 0 measurement as specified), and expressed as a percentage of the growth or cell percentage in the negative control (culture media alone or solvent control) at the indicated timepoint (or to the highest measurement reached during the assay for Fig. EV3).
Plasmodium berghei ANKA Bergreen (22) or GFP-Luc (RMgm-29) (23), respectively
expressing green fluorescent protein (GFP) or a GFP-Luciferase fusion protein, were
maintained under routine conditions in SWR/J Mus musculus mice and Anopheles stephensi
Growth inhibition of P. berghei liver-stages was investigated after infection of human
hepatoma cells (Huh7) and subsequent growth for 48 hours at 37° C, 5% CO2 and 80%
humidity. The day prior to infection, 10,000 Huh7 cells were seeded in dark-sided 96-well
microplates (Greiner Bio One). On the day of infection, compounds or solvent controls
(DMSO) were serially diluted in culture media and 5,000 – 10,000 Bergreen or GFP-Luc
sporozoites were added per well following dissection from infected A. stephensi salivary
glands. Uninfected wells served as control for background luminescence. To promote invasion,
the plates were centrifuged at 1,550 g for 5 minutes. After 60 minutes, the media was
completely replaced with fresh, prewarmed media with the matching drug concentrations.
Media was partially replaced with new drug dilutions over the following two days. 48 hours
post-infection, luminescence signal was measured by addition of 1:1 ONE-GloTM substrate
(Promega) to the wells, followed by detection at 300 – 700 nm using a Synergy HTX plate

## CC(C)OC(=O)CCC(=O)O[C@H]1CC[C@H]2[C@@H]3CC=C4C[C@@H](O)CC[C@]4(C)[C@H]3CC[C@]12C [C-17-link]
[1]; 1.562500000 uM, listed as HJB8a53, 1.5625 µM
  Gametocyte stage V viability, percentage of control: 100.2% and 98.56% and 92.55% and 112.8% and 114.5% and 98.06% and 102.7% and 106.9% and 101%
[1]; 50.000000000 uM, listed as HJB8a53, 50 µM
  Gametocyte stage V viability, percentage of control: 69.57% and 81.64% and 85.27%
[1]; 100.000000000 uM, listed as HJB8a53, 100 µM
  Gametocyte stage V viability, percentage of control: 29.13% and 28.63% and 16.49% and 6.64% and 5.637% and 3.021% and 27.44% and 23.3% and 20.39%
[1]; Plasmodium falciparum, read-out: Gametocyte stage V viability, percentage of control, 6.250000000 uM, 48 h, replicate values, source data Fig. 2D
  viability at 6.25 µM: 102%
[1]; Plasmodium falciparum, read-out: Gametocyte stage V viability, percentage of control, 12.500000000 uM, 48 h, replicate values, source data Fig. 2D
  viability at 12.5 µM: 96.4%
[1]; Plasmodium falciparum, read-out: IC50, P. falciparum gametocyte stage V inhibition
  IC50: 69.9 µM
[2]
  IC50: 43.6 µM
[3]; 0.015241580 uM
  P. berghei liver stage growth, dose-response data points (Figure 3A): 96.98 and 119.7 and 83.36 and 88.47 and 108.4 and 103.1 and 97.22 and 85.28 and 117.5
[3]; 0.045724740 uM
  P. berghei liver stage growth, dose-response data points (Figure 3A): 121.9 and 106 and 104.9 and 85.8 and 115.6 and 102.5 and 72.1 and 100.2 and 87.82
[3]; 0.137174210 uM
  P. berghei liver stage growth, dose-response data points (Figure 3A): 107.2 and 102.6 and 90.17 and 92.54 and 104.7 and 117.6 and 63.06 and 70.96 and 103.2
[3]; 0.292968750 uM
  Figure 3E dose-response value (replicates): 91.07 and 89.1 and 95.27 and 90.14
[3]; 0.411522630 uM
  P. berghei liver stage growth, dose-response data points (Figure 3A): 124.2 and 100.4 and 115.1 and 111.4 and 113.3 and 113.5 and 80.27 and 84.75 and 95.46
[3]; 0.585937500 uM
  Figure 3E dose-response value (replicates): 99.86 and 89.88 and 84.85 and 85.63 and 89.93 and 92.67 and 90.44 and 102.5 and 92 and 98.72 and 111.5 and 102.9
[3]; 1.171875000 uM
  Figure 3E dose-response value (replicates): 96.5 and 101.8 and 91.15 and 89.59 and 89.72 and 89.39 and 88.5 and 90.85 and 89.8 and 102.1 and 102.3 and 93.29
[3]; 1.234567900 uM
  P. berghei liver stage growth, dose-response data points (Figure 3A): 118.5 and 135.5 and 116.3 and 100.4 and 96.61 and 100.7 and 64.72 and 81.15 and 106.8
[3]; 2.343750000 uM
  Figure 3E dose-response value (replicates): 99.05 and 88.35 and 98.38 and 79.46 and 78.82 and 91.42 and 85.51 and 85.36 and 86.3 and 87.79 and 95.63 and 94.28
[3]; 3.703703700 uM
  P. berghei liver stage growth, dose-response data points (Figure 3A): 114 and 106 (2×) and 125.3 and 90.63 and 118.1 and 93.53 and 101.3 and 118.6
[3]; 4.687500000 uM
  Figure 3E dose-response value (replicates): 81 and 89.1 and 99.07 and 91.89 and 81.35 and 88.41 and 75.07 and 84.23 and 79.29 and 90.54 and 102.2 and 92.05
[3]; 9.375000000 uM
  Figure 3E dose-response value (replicates): 89.91 and 74.54 and 79.38 and 86.26 and 88.67 and 93.48 and 71.57 and 72.81 and 73.33 and 83.01 and 90.9 and 81.08
[3]; 11.111111100 uM
  P. berghei liver stage growth, dose-response data points (Figure 3A): 92.44 and 108.3 and 77.69 and 72.06 and 110.1 and 86.05 and 62.44 and 84.4 and 99.5
[3]; 18.750000000 uM
  Figure 3E dose-response value (replicates): 68.62 and 75.11 and 71.21 and 83.74 and 80.37 and 86.75 and 49.64 and 47.74 and 45.02 and 68.49 and 77.9 and 71.84
[3]; 33.333333300 uM
  P. berghei liver stage growth, dose-response data points (Figure 3A): 25.52 and 39.13 and 33.46 and 43.83 and 48.03 and 60.49 and 20.73 and 60.95 and 57.96
[3]; 37.500000000 uM
  Figure 3E dose-response value (replicates): 25.13 and 30.9 and 15.88 and 48.26 and 43.84 and 49.75 and 11.26 and 13.01 and 10.8 and 38.05 and 39.89 and 41.67
[3]; 75.000000000 uM
  Figure 3E dose-response value (replicates): 2.196 and 1.744 and 3.137 and 1.33 and 2.981 and 3.396 and -0.3545 and -0.4946 and 0.272 and 5.931 and 5.012 and 6.082
[3]; 100.000000000 uM
  P. berghei liver stage growth, dose-response data points (Figure 3A): -0.5671 and 0.5671 and -2.836 and -0.2967 and -0.1696 and 0.5935 and 0.3513 and 0.08782 and 0.4391
[3]; Plasmodium berghei, Huh-7, 48 h, read-out: IC50, P. berghei liver stage growth inhibition
  IC50: 29.2 µM
